Measured values: article PMC8371902, “Phase 1 study of M2698, a p70S6K/AKT dual inhibitor, in patients with advanced cancer” (Journal of Hematology & Oncology, 2021)
Like-named read-outs stand apart in the source and are kept apart here.

Tested on: patients with advanced metastatic cancer
Source text: In this phase 1 study, dose escalation was followed by expansion cohorts of once-daily, oral M2698 in continuous 21-day cycles. Primary objectives were to determine the maximum tolerated dose (MTD), dose-limiting toxicities (DLTs), and recommended phase 2 dose (RP2D). Secondary objectives were to assess safety and tolerability, pharmacokinetics (PK, including food effect) and antitumor activity. Pharmacodynamic biomarker assessments were exploratory. Treatment was discontinued if there was disease progression, toxicity or consent withdrawal.
In Part 1, M2698 monotherapy was investigated in a dose escalation with a food effect cohort. In Part 2, M2698 was investigated as monotherapy (expansion cohort) to further characterize safety, tolerability and pharmacokinetics, and assess antitumor activity in PAM + patients without confounding markers (exploratory).
Dose escalation analysis included all patients who experienced a DLT and those who received ≥ 80% of planned M2698 doses in cycle 1 without experiencing a DLT. Safety analysis included all patients who received ≥ 1 dose of M2698. PK analysis included all patients who received ≥ 1 dose of M2698 and had measurable plasma concentrations. Dose proportionality was tested using the power model (linear regression approach on the log -transformed scale).

## NC(=O)c1cccc2c(N[C@H](CN3CCC3)c3ccc(Cl)c(C(F)(F)F)c3)ncnc12 [M2698]
75 mg n=4
  M2698-related TEAE: Ataxia: 0
  M2698-related TEAE: Blood and lymphatic system disorders: 0
  M2698-related TEAE: Blood creatine phosphokinase increased: 1
  M2698-related TEAE: Blood creatinine increased: 0
  M2698-related TEAE: Cardiac disorders: 0
  M2698-related TEAE: Cognitive disorder: 0
  M2698-related TEAE: Constipation: 0
  M2698-related TEAE: Decreased appetite: 0
  M2698-related TEAE: Delusion: 0
  M2698-related TEAE: Depression: 0
  M2698-related TEAE: Diarrhoea: 0
  M2698-related TEAE: Diarrhoea haemorrhagic: 0
  M2698-related TEAE: Dizziness: 0
  M2698-related TEAE: Dry eye: 0
  M2698-related TEAE: Dry mouth: 0
  M2698-related TEAE: Dysgeusia: 1
  M2698-related TEAE: Dyspepsia: 0
  M2698-related TEAE: Dysphagia: 0
  M2698-related TEAE: Energy increased: 0
  M2698-related TEAE: Erythema: 0
  M2698-related TEAE: Euphoric mood: 0
  M2698-related TEAE: Eye disorders: 0
  M2698-related TEAE: Fatigue: 0
  M2698-related TEAE: Gamma-glutamyltransferase increased: 0
  M2698-related TEAE: Gastrointestinal disorders: 0
  M2698-related TEAE: Gastrooesophageal reflux disease: 0
  M2698-related TEAE: General disorders and administration site conditions: 0
  M2698-related TEAE: Headache: 0
  M2698-related TEAE: Hyperhidrosis: 0
  M2698-related TEAE: Hypokalaemia: 0
  M2698-related TEAE: Hypomagnesaemia: 0
  M2698-related TEAE: Insomnia: 0
  M2698-related TEAE: Investigations: 1
  M2698-related TEAE: Lipase increased: 0
  M2698-related TEAE: Lymphopenia: 0
  M2698-related TEAE: Metabolism and nutrition disorders: 0
  M2698-related TEAE: Mucosal inflammation: 0
  M2698-related TEAE: Nausea: 0
  M2698-related TEAE: Nervous system disorders: 1
  M2698-related TEAE: Nightmare: 1
  M2698-related TEAE: Onychomadesis: 0
  M2698-related TEAE: Paranoia: 0
  M2698-related TEAE: Photosensitivity reaction: 0
  M2698-related TEAE: Posterior reversible encephalopathy syndrome: 0
  M2698-related TEAE: Pruritus generalised: 0
  M2698-related TEAE: Psychiatric disorders: 1
  M2698-related TEAE: Rash: 0
  M2698-related TEAE: Rash maculo-papular: 1
  M2698-related TEAE: Skin and subcutaneous tissue disorders: 1
  M2698-related TEAE: Subjects with at least one event: 2
  M2698-related TEAE: Transaminases increased: 0
  M2698-related TEAE: Tremor: 0
  M2698-related TEAE: Vision blurred: 0
  M2698-related TEAE: Vomiting: 0
  M2698-related TEAE: White blood cell count decreased: 0
110 mg n=4
  M2698-related TEAE: Abnormal dreams: 0
  M2698-related TEAE: Affect lability: 0
  M2698-related TEAE: Alanine aminotransferase increased: 0
  M2698-related TEAE: Amylase increased: 0
  M2698-related TEAE: Anaemia: 0
  M2698-related TEAE: Angina pectoris: 0
  M2698-related TEAE: Anxiety: 0
  M2698-related TEAE: Aphasia: 0
  M2698-related TEAE: Ataxia: 0
  M2698-related TEAE: Blood and lymphatic system disorders: 0
  M2698-related TEAE: Blood creatine phosphokinase increased: 0
  M2698-related TEAE: Blood creatinine increased: 0
  M2698-related TEAE: Cardiac disorders: 0
  M2698-related TEAE: Cognitive disorder: 0
  M2698-related TEAE: Constipation: 1
  M2698-related TEAE: Decreased appetite: 0
  M2698-related TEAE: Delusion: 0
  M2698-related TEAE: Depression: 0
  M2698-related TEAE: Diarrhoea: 0
  M2698-related TEAE: Diarrhoea haemorrhagic: 0
  M2698-related TEAE: Dizziness: 0
  M2698-related TEAE: Dry eye: 0
  M2698-related TEAE: Dry mouth: 0
  M2698-related TEAE: Dysgeusia: 0
  M2698-related TEAE: Dyspepsia: 0
  M2698-related TEAE: Dysphagia: 0
  M2698-related TEAE: Energy increased: 0
  M2698-related TEAE: Erythema: 0
  M2698-related TEAE: Euphoric mood: 0
  M2698-related TEAE: Eye disorders: 0
  M2698-related TEAE: Fatigue: 0
  M2698-related TEAE: Gamma-glutamyltransferase increased: 0
  M2698-related TEAE: Gastrointestinal disorders: 1
  M2698-related TEAE: Gastrooesophageal reflux disease: 0
  M2698-related TEAE: General disorders and administration site conditions: 0
  M2698-related TEAE: Headache: 0
  M2698-related TEAE: Hyperhidrosis: 0
  M2698-related TEAE: Hypokalaemia: 0
  M2698-related TEAE: Hypomagnesaemia: 0
  M2698-related TEAE: Insomnia: 0
  M2698-related TEAE: Investigations: 0
  M2698-related TEAE: Lipase increased: 0
  M2698-related TEAE: Lymphopenia: 0
  M2698-related TEAE: Metabolism and nutrition disorders: 0
  M2698-related TEAE: Mucosal inflammation: 0
  M2698-related TEAE: Nausea: 1
  M2698-related TEAE: Nervous system disorders: 0
  M2698-related TEAE: Nightmare: 0
  M2698-related TEAE: Onychomadesis: 0
  M2698-related TEAE: Paranoia: 0
  M2698-related TEAE: Photosensitivity reaction: 0
  M2698-related TEAE: Posterior reversible encephalopathy syndrome: 0
  M2698-related TEAE: Pruritus generalised: 0
  M2698-related TEAE: Psychiatric disorders: 0
  M2698-related TEAE: Rash: 0
  M2698-related TEAE: Rash maculo-papular: 0
  M2698-related TEAE: Skin and subcutaneous tissue disorders: 0
  M2698-related TEAE: Subjects with at least one event: 1
  M2698-related TEAE: Transaminases increased: 0
  M2698-related TEAE: Tremor: 0
  M2698-related TEAE: Vision blurred: 0
  M2698-related TEAE: Vomiting: 0
  M2698-related TEAE: White blood cell count decreased: 0
160 mg n=6
  M2698-related TEAE: Abnormal dreams: 1
  M2698-related TEAE: Affect lability: 0
  M2698-related TEAE: Alanine aminotransferase increased: 0
  M2698-related TEAE: Amylase increased: 0
  M2698-related TEAE: Anaemia: 0
  M2698-related TEAE: Angina pectoris: 0
  M2698-related TEAE: Anxiety: 0
  M2698-related TEAE: Aphasia: 0
  M2698-related TEAE: Ataxia: 0
  M2698-related TEAE: Blood and lymphatic system disorders: 1
  M2698-related TEAE: Blood creatine phosphokinase increased: 0
  M2698-related TEAE: Blood creatinine increased: 0
  M2698-related TEAE: Cardiac disorders: 0
  M2698-related TEAE: Cognitive disorder: 0
  M2698-related TEAE: Constipation: 0
  M2698-related TEAE: Decreased appetite: 0
  M2698-related TEAE: Delusion: 0
  M2698-related TEAE: Depression: 0
  M2698-related TEAE: Diarrhoea: 0
  M2698-related TEAE: Diarrhoea haemorrhagic: 0
  M2698-related TEAE: Dizziness: 0
  M2698-related TEAE: Dry eye: 1
  M2698-related TEAE: Dry mouth: 1
  M2698-related TEAE: Dysgeusia: 1
  M2698-related TEAE: Dyspepsia: 0
  M2698-related TEAE: Dysphagia: 1
  M2698-related TEAE: Energy increased: 1
  M2698-related TEAE: Erythema: 1
  M2698-related TEAE: Euphoric mood: 1
  M2698-related TEAE: Eye disorders: 1
  M2698-related TEAE: Fatigue: 0
  M2698-related TEAE: Gamma-glutamyltransferase increased: 1
  M2698-related TEAE: Gastrointestinal disorders: 1
  M2698-related TEAE: Gastrooesophageal reflux disease: 0
  M2698-related TEAE: General disorders and administration site conditions: 1
  M2698-related TEAE: Headache: 0
  M2698-related TEAE: Hyperhidrosis: 0
  M2698-related TEAE: Hypokalaemia: 0
  M2698-related TEAE: Hypomagnesaemia: 0
  M2698-related TEAE: Insomnia: 1
  M2698-related TEAE: Investigations: 3
  M2698-related TEAE: Lipase increased: 0
  M2698-related TEAE: Lymphopenia: 1
  M2698-related TEAE: Metabolism and nutrition disorders: 0
  M2698-related TEAE: Mucosal inflammation: 0
  M2698-related TEAE: Nausea: 0
  M2698-related TEAE: Nervous system disorders: 1
  M2698-related TEAE: Nightmare: 0
  M2698-related TEAE: Onychomadesis: 0
  M2698-related TEAE: Paranoia: 0
  M2698-related TEAE: Photosensitivity reaction: 0
  M2698-related TEAE: Posterior reversible encephalopathy syndrome: 0
  M2698-related TEAE: Pruritus generalised: 0
  M2698-related TEAE: Psychiatric disorders: 2
  M2698-related TEAE: Rash: 1
  M2698-related TEAE: Rash maculo-papular: 0
  M2698-related TEAE: Skin and subcutaneous tissue disorders: 2
  M2698-related TEAE: Subjects with at least one event: 4
  M2698-related TEAE: Transaminases increased: 1
  M2698-related TEAE: Tremor: 0
  M2698-related TEAE: Vision blurred: 0
  M2698-related TEAE: Vomiting: 0
  M2698-related TEAE: White blood cell count decreased: 1
160 mg, n = 1
  DLT observed: grade 3 increase in gamma-glutamyltransferase
200 mg n=3
  M2698-related TEAE: Abnormal dreams: 0
  M2698-related TEAE: Affect lability: 0
  M2698-related TEAE: Alanine aminotransferase increased: 0
  M2698-related TEAE: Amylase increased: 0
  M2698-related TEAE: Anaemia: 1
  M2698-related TEAE: Angina pectoris: 0
  M2698-related TEAE: Anxiety: 0
  M2698-related TEAE: Aphasia: 0
  M2698-related TEAE: Ataxia: 0
  M2698-related TEAE: Blood and lymphatic system disorders: 1
  M2698-related TEAE: Blood creatine phosphokinase increased: 0
  M2698-related TEAE: Blood creatinine increased: 0
  M2698-related TEAE: Cardiac disorders: 0
  M2698-related TEAE: Cognitive disorder: 0
  M2698-related TEAE: Constipation: 0
  M2698-related TEAE: Decreased appetite: 1
